Measurements taken from patent US9796707B2, “Piperazine derivatives for treating disorders” (The University of Nottingham, priority 2014, dated 2017).

What was measured:
[1] = Half life in human liver microsomes
Source text: We also tested the half life of these compounds when exposed to human liver microsomes.

[2] = mouse, in vivo
Protocol: Mice were treated for six days with 2 μg per eye SPHINX31 as eye drops, and ERG carried out using a Micron IV Ganzfield ERG system as recommended by the manufacturers instructions.
Scotopic ERG recordings were taken in dark adapted animals following stimulation with increasing intensities of green (FIGS. 20A, 20C, 20E, 20G) light (to activate M-cones and rods) or UV (FIGS. 20B, 20D, 20F, 20H) light (to activate S-cones and rods). […] ERG amplitude at different intensities of green (FIGS. 20C, 20E) or UV (FIGS. 20D, 20F) are shown for the A wave (FIGS. 20C, 20D) and B wave (FIGS. 20E, 20F).

[3] = test system: SRSF1 nuclear localisation in PC3 prostate cancer cells; experiment: SRSF1 localisation by immunofluorescence
[4] = test system: SRSF1 nuclear localisation in MDA-MB231 cells; experiment: SRSF1 localisation by immunofluorescence
[5] = Scleral permeability, modified Ussing chamber; type: in vitro ADME; conditions: rabbit
Protocol: Scleral permeability was measured using a modified Ussing chamber assembly in isotonic assay buffer (pH 7.4). Rabbit or porcine excised eye tissues were mounted in the chambers such that the episcleral side faced the donor chamber and the retinal side faced the receiver chamber. The chambers were filled with equal volumes of assay buffer, with (donor side) or without (receiver side) 1 μg/ml compound. After 4 or 24 hours tissue was removed from the chamber and the receiver side (“vitreous”) sampled. Tissue was dissected into sclera, choroid/RPE, and retina and homogenised.
After 0, 4 or 24 hours, the fluid from the bottom chamber (vitreous) and the retinal tissue was isolated and compounds purified by acetonitrile extraction and HPLC.

[6] = type: cell-based
Source text: To test whether compounds of Formula (I) are safe to administer to patients we began a basic safety test of these compounds in vitro.

[7] = test system: choroidal neovascularisation; conditions: mouse CNV, eye drops, previously shown; cited from earlier work
neovascular AMD = conditions: 0.5 mg monthly, at one year; cited from earlier work

O=C(Nc1cc(C(F)(F)F)ccc1N1CCN(Cc2ccccn2)CC1)c1ccc(-c2ccncc2)o1 [Compound 12]
solubility in water of salt forms (Solubility in water): more freely soluble in water | Half life [1]: 1.025 h | effect on scotopic or photopic activity [2]: No effect | SRSF1 localisation [3]: inhibited cellular localisation | SRSF1 localisation [4]: inhibited cellular localisation

O=C(Nc1cc(C(F)(F)F)ccc1N1CCN(Cc2cccnc2)CC1)c1ccc(-c2ccncc2)o1 [Compound 13]
solubility in water of salt forms (Solubility in water): more freely soluble in water

O=C(Nc1cc(C(F)(F)F)ccc1N1CCN(Cc2ccncc2)CC1)c1ccc(-c2ccncc2)o1 [Compound 14]
solubility in water of salt forms (Solubility in water): more freely soluble in water

Cc1ccc(Nc2nccc(N(C)c3ccc4c(C)n(C)nc4c3)n2)cc1S(N)(=O)=O [pazopanib]
detection in retina ([5]; 4 hrs): could not | detection in vitreous (bottom chamber) ([5]; 4 hrs): could not | detection in vitreous (bottom chamber) ([5]; 24 hours): detected

CN(C)CCN1CCN(c2ccc(C(F)(F)F)cc2NC(=O)c2ccc(-c3ccncc3)o2)CC1 [SPHINX7]
toxic doses [6]: greater than 10 μM

Cc1ccc(C(=O)Nc2cc(C(F)(F)F)ccc2N2CCOCC2)o1 [SPHINX]
eye drop concentration of maximum effect [7]: 10 µg/mL

O=C(Nc1cc(C(F)(F)F)ccc1N1CCCCC1)c1ccncc1 [SRPIN340]
eye drop concentration of maximum effect [7]: 10 µg/mL

B1: Lucentis: novel humanized anti-VEGF antibody fragment (antibody, chains of the INN, looked up, V domains shown)
VH: EVQLVESGGGLVQPGGSLRLSCAASGYDFTHYGMNWVRQAPGKGLEWVGWINTYTGEPTYAADFKRRFTFSLDTSKSTAYLQMNSLRAEDTAVYYCAKYPYYYGTSHWYFDVWGQGTLVTVSS
VL: DIQLTQSPSSLSASVGDRVTITCSASQDISNYLNWYQQKPGKAPKVLIYFTSSLHSGVPSRFSGSGSGTDFTLTISSLQPEDFATYYCQQYSTVPWTFGQGTKVEIK
modifications: Fab
notes: novel humanized anti-VEGF antibody fragment
patients who maintained visual acuity (loss of <15 letters) (neovascular AMD): approximately 95% | patients with improved vision (gain of ≧15 letters) (neovascular AMD): ≤ 40%
